Test results taken from patent US12298297B2, “Visual cell sorting” (University of Washington, priority 2020, dated 2025).

How the values were obtained:
[1] = test system: hTERT RPE-1; assay: Nuclear shape factor imaging of paclitaxel-treated cells (nuclear lobulation); assay type: cell-based, human; details: 0.25 nM paclitaxel, 24 hours, RPE-1 NLS-Dendra2×3 cells
Description: FIGS. 4A-4F. Visual Cell Sorting to dissect heterogeneous nuclear morphology following paclitaxel treatment. (4A) RPE-1 NLS-Dendra2×3 cells were treated for 24 hours with 0.25 nM paclitaxel or DMSO and imaged. The shape factor, which measures the degree of an object's circularity, was computed for each nucleus. One normal nucleus with a shape factor near one and one lobulated nucleus with a low shape factor are shown. The computationally determined boundaries of each nucleus are shown in blue; scale bar=10 (4B) Shape factor density plots for vehicle (DMSO) and 0.25 nM paclitaxel-treated RPE-1 cells (n≥3,914 cells per treatment). Dashed line, cutoff for lobulated nuclei (shape factor <0.65). […]
To test whether Visual Cell Sorting enables transcriptomics on cells with distinct image-based phenotypes, single cell RNA sequencing was performed on cells undergoing divergent morphologic responses to paclitaxel. […] Paclitaxel treated cells were then analyzed it was observed that 30% of paclitaxel treated cells had lobulated nuclei, defined by shape factor of less than 0.65 (FIG. 4B).
RPE-1 NLS-Dendra2×3/H2B-miRFP/NES-mBeRFP Clone 3 cells were plated at 50,000 cells per well in a 6-well plate. […] After 30 hours of treatment, cells were placed on the microscope and imaged, analyzed, and activated across 2,204 sites (˜75% coverage, avoided well edges) in 2 wells. […]

[2] = test system: U-2 OS H3-Dendra2 cells; assay: Nucleus-to-cytoplasm (N:C) miRFP ratio of individually expressed NLS variants fused to CMPK-miRFP reporter; assay type: cell-based, human
Description: FIGS. 3A-3D. Visual Cell Sorting-derived variant scores accurately predict NLS function. (3A) Nine NLS variants were individually expressed in the CMPK-miRFP reporter in U-2 OS H3-Dendra2 cells. The median nucleus to cytoplasm (N:C) ratio of cells expressing each variant was measured by microscope and compared to its localization score derived by Visual Cell Sorting. n≥141 cells per variant per replicate. Bars, mean across at least three separate replicates. (3B) SV40 NLS variants that appeared to enhance nuclear localization were individually tested both alone and in combination. NLS variants with up to three amino acid changes were expressed in U-2 OS H3-Dendra2 cells and imaged; the median N:C ratio was quantified across cells in the same well. n≥527 cells per variant per replicate. […]
A library was based on the SV40 NLS, a 7-residue sequence containing a lysine and arginine-rich region (K/R motif) that was the first NLS to be discovered. […] The degree of nuclear localization was calculated using a nucleus-to-cytoplasm miRFP intensity ratio (N:C ratio; FIG. 9A). […]
Analysis of Metamorph-calculated nucleus and cytoplasm mean intensity values was done using Python (v3.6.5). […] Cells with no miRFP expression were removed with a gate that was determined by examination of the histogram of the mean miRFP intensity values for cells in each well. […]

CC(=O)O[C@H]1C(=O)[C@@]2(C)[C@H]([C@H](OC(=O)c3ccccc3)[C@]3(O)C[C@H](OC(=O)[C@H](O)[C@@H](NC(=O)c4ccccc4)c4ccccc4)C(C)=C1C3(C)C)[C@]1(OC(C)=O)CO[C@@H]1C[C@@H]2O [paclitaxel]
cells with lobulated nuclei, defined by shape factor of less than 0.65 [1]: 30%

EPPRKKRKIGI [superNLS, optimized SV40 NLS with three missense variants, fused to the CMPK-miRFP reporter]
increase in nuclear localization compared to the wild-type SV40 NLS (median N:C ratio) [2]: 2.3 fold
